Where two headings read alike, the source gives them in different places.
Columns and labels:
[1] = molecular target: T1, Pisum sativum agglutinin (PSA, pea lectin) (Lathyrus oleraceus, UniProt P02867); experiment: ITC at […] K; type: binding
T1 sequence (P02867 31-217): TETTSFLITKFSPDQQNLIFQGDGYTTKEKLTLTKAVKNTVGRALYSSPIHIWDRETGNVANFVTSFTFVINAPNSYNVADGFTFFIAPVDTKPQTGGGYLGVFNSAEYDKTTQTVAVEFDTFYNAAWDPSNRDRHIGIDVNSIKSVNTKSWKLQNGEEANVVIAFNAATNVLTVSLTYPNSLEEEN
T1 sequence (P02867 218-275): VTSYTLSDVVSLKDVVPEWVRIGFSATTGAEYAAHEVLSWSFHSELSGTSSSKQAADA

[2] = molecular target: T1, Pisum sativum agglutinin (PSA, pea lectin); experiment: ITC at […] K; type: binding; remark: listed apart in the source

Kd [1] [µM] | Kd [2] [µM] | Structure (SMILES)
621 ± 11 |  | OC[C@H]1O[C@H](OC[C@H]2O[C@H](O)[C@@H](O)[C@@H](O[C@H]3O[C@H](CO)[C@@H](O)[C@H](O)[C@@H]3O)[C@@H]2O)[C@@H](O)[C@@H](O)[C@@H]1O [compound 2, 3,6-di-O-(α-D-mannopyranosyl)-α-D-mannopyranose]
 | 806 ± 32 | CO[C@H]1O[C@H](CO)[C@@H](O)[C@H](O)[C@@H]1O [compound 1, methyl α-D-mannopyranoside]

— publication PMC5435455 (ACS Chemical Biology, 2017)
